Laboratory results from PMC6284057, “Combined Antibacterial Effects of Goat Cathelicidins With Different Mechanisms of Action” (Frontiers in Microbiology, 2018).
Where two headings read alike, the source gives them in different places. No end group written: not given here.

How the values were obtained:
[1] = tested on: human red blood cells (hRBC); assay: Hemolysis (hemoglobin release assay); type: cell-based; conditions: 1.5 h incubation, hRBC of 3 independent donors
Protocol: Hemolytic activity of the peptides was tested against the fresh suspension of human red blood cells (hRBC) using the hemoglobin release assay as described previously ([Panteleev et al., 2016]). Three experiments were performed with the hRBC from blood samples obtained from independent donors. The obtained data were represented as average means with standard deviations. The cytotoxicity of the peptides against HEK293T (transformed human embryonic kidney cells) and HEF (human embryonic fibroblasts) cell lines was studied using the colorimetric 3-(4,5-dimethylthiazol-2-yl)-2,5-diphenyltetrazolium bromide (MTT) dye reduction assay according to ([Panteleev and Ovchinnikova, 2017]). Three independent experiments were performed for each peptide. Half maximal inhibitory concentration (IC50) values were estimated as described previously ([Kuzmin et al., 2018]).

[2] = tested on: E. coli XDR CI 1057; conditions: for MIC value at transfer “1”: MH broth with 0.9% NaCl, 37°C, legend covers both strains, values match XDR CI 1057
Protocol: Resistance induction experiments were performed using the previously described method ([Chernysh et al., 2015]) with some modifications. Briefly, on day 1, the overnight culture of wild-type bacteria was diluted with the 2× MH broth containing 1.8% NaCl so that to reach a final cell concentration of 10^6 CFU/ml. 50 μl aliquots of the obtained bacterial suspension were added to 50 μl of the peptide solutions serially diluted with 0.1% water solution of BSA in 96-well microplates (Eppendorf #0030730011). After incubation at 37°C and 900 rpm for 22 ± 2 h, MICs were determined as described above. For each subsequent daily transfer, 5 μl of the inoculum taken from the first well with a sub-inhibitory drug concentration were diluted with 1 ml of the fresh 2× MH broth supplemented with 1.8% NaCl. […] Control serial passages in the absence of the agent were also performed.

[3] = tested on: A. baumannii (XDR CI 2675); type: cell-based, Acinetobacter baumannii; conditions: for Fractional inhibitory concentration (FICA, FICB): [X]/MICX; for Fractional inhibitory concentration (FICA, FICB) / MIC of the peptide when used together ([A], [B]): 0.9% NaCl; for MIC of the peptide when used together ([A], [B]): in the mix ChMAP-28 + mini-ChBac7.5Nα, other peptide at sub-inhibitory concentration; for MIC of the individual peptide (MICA, MICB): peptide used individually, medium with physiological NaCl (0.9%), median of 3 experiments in duplicate
Protocol: (§1) Antimicrobial assay was performed as described previously ([Panteleev et al., 2017b]). Briefly, mid-log phase bacterial test cultures were diluted with the 2× Mueller-Hinton broth (MH, Sigma) supplemented with 1.8% NaCl or without it so that to reach a final cell concentration of 10^6 CFU/ml. 50 μl aliquots of the obtained bacterial suspension were added to 50 μl of the peptide solutions serially diluted with 0.1% water solution of bovine serum albumin (BSA) in 96-well flat-bottom polystyrene microplates (Eppendorf #0030730011). After incubation at 37°C and 900 rpm for 24 h the minimum inhibitory concentrations (MIC) were determined as the lowest peptide concentrations that prevented growth of a test microorganism observed as visible turbidity. The results were expressed as the median values determined on the basis of at least three independent experiments performed in triplicate.
(§2) The peptides were twofold serially diluted with 0.1% BSA in 96-well microplates (Eppendorf #0030730011). Then, the peptide solutions were mixed in the new test plate crosswise in such a way that the resulting checkerboard contained each combination of the cathelicidins in eight doubly increasing concentrations, with wells containing the highest concentration of each peptide at opposite corners ([Berditsch et al., 2015]). Then, the antimicrobial assay was performed as described in the previous section. […] The results were expressed as the median values determined on the basis of three independent experiments performed in duplicate. Estimation of synergistic effects of different cathelicidins was performed by calculating the fractional inhibitory concentration index (FICI) according to the equation: FICI = [À]/MICÀ + [B]/MICB, where MICÀ and MICB are the MICs of the individual substances, while [A] and [B] are the MICs of A and B when used together. A synergistic effect was defined at a FICI ≤ 0.5.

[4] = tested on: K. pneumoniae (CI 287); type: cell-based, Klebsiella pneumoniae
Protocol: as §1, §2

[5] = tested on: P. aeruginosa PAO1; type: cell-based, Pseudomonas aeruginosa; conditions: PAO1, 24 h
Protocol: as §1
The peptides were twofold serially diluted with 0.1% BSA in 96-well microplates (Eppendorf #0030730011). […] The results were expressed as the median values determined on the basis of three independent experiments performed in duplicate. […]

[6] = tested on: E. coli XDR CI 1057 (26 days without antimicrobial agent)
Protocol: as §1, with “After incubation at 37°C and 900 rpm for 24 h the minimum inhibitory concentrations (MIC) were determined as the lowest peptide concentrations that prevented growth of a test microorganism observed as visible turbidity.” left out
(§3) Resistance induction experiments were performed using the previously described method ([Chernysh et al., 2015]) with some modifications. Briefly, on day 1, the overnight culture of wild-type bacteria was diluted with the 2× MH broth containing 1.8% NaCl so that to reach a final cell concentration of 10^6 CFU/ml. 50 μl aliquots of the obtained bacterial suspension were added to 50 μl of the peptide solutions serially diluted with 0.1% water solution of BSA in 96-well microplates (Eppendorf #0030730011). After incubation at 37°C and 900 rpm for 22 ± 2 h, MICs were determined as described above. For each subsequent daily transfer, 5 μl of the inoculum taken from the first well with a sub-inhibitory drug concentration were diluted with 1 ml of the fresh 2× MH broth supplemented with 1.8% NaCl. […] 26 repeated passages in the presence of antimicrobial agents were made for each bacterial strain during the experiment. […] Control serial passages in the absence of the agent were also performed.

[7] = tested on: E. coli XDR CI 1057 (26 days with polymyxin B); conditions: Table 4, strain after 26 days with polymyxin B (selection in MH broth with 0.9% NaCl)
Protocol: as §1, with “After incubation at 37°C and 900 rpm for 24 h the minimum inhibitory concentrations (MIC) were determined as the lowest peptide concentrations that prevented growth of a test microorganism observed as visible turbidity.” left out
as §3

[8] = tested on: E. coli XDR CI 1057 (26 days with synergy combination); conditions: Table 4, strain after 26 days with synergy combination (selection in MH broth with 0.9% NaCl)
Protocol: as §1, with “After incubation at 37°C and 900 rpm for 24 h the minimum inhibitory concentrations (MIC) were determined as the lowest peptide concentrations that prevented growth of a test microorganism observed as visible turbidity.” left out
as §3

[9] = tested on: E. coli XDR CI 1057 (26 days with mini-ChBac7.5Nα)
Protocol: as §1, with “After incubation at 37°C and 900 rpm for 24 h the minimum inhibitory concentrations (MIC) were determined as the lowest peptide concentrations that prevented growth of a test microorganism observed as visible turbidity.” left out
as §3

[10] = Table 4, strain after 26 days without antimicrobial agent (selection in MH broth with 0.9% NaCl)
[11] = With 0.9% NaCl, control strain, 26 days without antimicrobial agent
[12] = Without salt, control strain, 26 days without antimicrobial agent
[13] = Table 4, strain after 26 days with mini-ChBac7.5Nα (selection in MH broth with 0.9% NaCl)
[14] = With 0.9% NaCl, resistant strain, 26 days with mini-ChBac7.5Nα
[15] = Without salt, resistant strain, 26 days with mini-ChBac7.5Nα

Sequence	red blood cells lysed ([1]; at the concentration of 100 μM)	MIC value at transfer “1” [2]	MIC value after selection ([2]; after eight passages, highest concentration tested 256 μM, MH broth, 0.9% NaCl)	Fractional inhibitory concentration (FICA, FICB) [3]	MIC of the peptide when used together ([A], [B]) [3]	MIC of the individual peptide (MICA, MICB) [3]	Fractional inhibitory concentration (FICA, FICB) ([4]; CI 287, 24 h)	MIC of the individual peptide (MICA, MICB) ([4]; CI 287, 24 h)	MIC of the individual peptide (MICA, MICB) [5]	Minimum inhibitory concentration [6, 10]	Minimum inhibitory concentration [6, 11]	Minimum inhibitory concentration [6, 12]	Minimum inhibitory concentration [7]	Minimum inhibitory concentration [8]	Minimum inhibitory concentration [9, 13]	Minimum inhibitory concentration [9, 14]	Minimum inhibitory concentration [9, 15]	half maximal hemolysis concentration (HC50) ([1]; hemoglobin release)	Fractional inhibitory concentration (FICA, FICB) ([4]; [X]/MICX, 0.9% NaCl)	Fractional inhibitory concentration (FICA, FICB) [5]
RRLRPRRPRLPRPRPRPRPRPR [mini-ChBac7.5Nα]	2%	8 µM	> 256 µM	0.008	0.5 µM	>32 µM	0.125	16 µM	>32 µM	8 µM	8 µM	1 µM	64 µM	8 µM	>128 µM	>256 µM	1 µM	–	–	–
GRFKRFRKKLKRLWHKVGPFVGPILHY [ChMAP-28]	–	0.125 µM	–	0.125	0.03 µM	0.25 µM	–	0.5 µM	–	0.125 µM	0.125 µM	0.125 µM	0.25 µM	0.125 µM	0.125 µM	0.125 µM	0.125 µM	~100 µM	0.125	0.5
